Structures are written as SMILES.

The test system of assay [1] is EC9706 cells. The experiment in a line: Baco-1 virus yield (plaque assay) with or without drug, EC9706 cells. Type of assay: cell-based, human. The procedure: (§1) A. EC9706 cells were either preincubated with rapamycin overnight (Pre-Inf) or incubated with the drug during the virus infection (During-Inf). They were then infected with Baco-1 at 0.1 pfu/cell and for 72 h. Fold increase in virus yield was calculated by dividing […]. […] B. MCF-7 and HeLa cells were infected with Baco-1 at 0.01 pfu/cell for 1 h. Then the cells were cultured in medium without (control) or with rapamycin at a concentration of 100 nM for 72 h before harvesting for virus titration.

A further assay has as its system MCF-7. Put plainly: Baco-1 virus yield with or without rapamycin, MCF-7 cells. To be noted: MCF-7 (breast); Baco-1 yield, well with rapamycin / well without. Format: cell-based, human. The procedure: as §1
In another assay the test system is HeLa. Put plainly: Baco-1 virus yield with or without rapamycin, HeLa cells. Format: cell-based. To be noted: HeLa (cervix); Baco-1 yield, well with rapamycin / well without. How it is done: as §1
The next assay deals with 293T. Put plainly: Baco-1 virus yield with or without rapamycin, 293T cells. Format: cell-based. To be noted: 293T (kidney); Baco-1 yield, well with rapamycin / well without.
In a further assay the test system is SW480. Put plainly: Baco-1 virus yield with or without rapamycin, SW480 cells. Type of assay: cell-based. To be noted: SW480 (colon); Baco-1 yield, well with rapamycin / well without.
The test system of the next assay is HepG2. The experiment in a line: Baco-1 virus yield with or without rapamycin, HepG2 cells. To be noted: HepG2 (liver); Baco-1 yield, well with rapamycin / well without. Type of assay: cell-based.
The next assay deals with HuH-7. The experiment in a line: Baco-1 virus yield with or without rapamycin, HuH-7 cells. Format: cell-based. To be noted: HuH-7 (liver); Baco-1 yield, well with rapamycin / well without.
A further assay concerns Hep3B. Put plainly: Baco-1 virus yield with or without rapamycin, Hep3B cells. Format: cell-based. To be noted: Hep3B (liver); Baco-1 yield, well with rapamycin / well without.
The next assay relates to MDA-MB-231. The experiment in a line: Baco-1 virus yield with or without rapamycin, MDA-MB-231 cells. Format: cell-based. To be noted: MDA-MB-231 (breast); Baco-1 yield, well with rapamycin / well without.
For another assay, the system named is MDA-MB-435. The experiment in a line: Baco-1 virus yield with or without rapamycin, MDA-MB-435 cells. Format: cell-based. To be noted: MDA-MB-435 (breast); Baco-1 yield, well with rapamycin / well without.
A further assay has as its system A549. Put plainly: Baco-1 virus yield with or without rapamycin, A549 cells. Format: cell-based. To be noted: A549 (lung); Baco-1 yield, well with rapamycin / well without.
In a further assay the test system is DLD-1. The experiment in a line: Baco-1 virus yield with or without rapamycin, DLD-1 cells. To be noted: DLD-1 (colon); Baco-1 yield, well with rapamycin / well without. Type of assay: cell-based.
In the next assay the test system is HCT116. Put plainly: Baco-1 virus yield with or without rapamycin, HCT116 cells. Format: cell-based. To be noted: HCT116 (colon); Baco-1 yield, well with rapamycin / well without.
A further assay has as its system PANC-1. The experiment in a line: Baco-1 virus yield with or without rapamycin, PANC-1 cells. Format: cell-based. To be noted: PANC-1 (pancreas); Baco-1 yield, well with rapamycin / well without.
Another assay deals with MPanc-96. Put plainly: Baco-1 virus yield with or without rapamycin, MPanc-96 cells. Format: cell-based. To be noted: MPanc-96 (pancreas); Baco-1 yield, well with rapamycin / well without.
In assay [2] the test system is resistant tumor cells (EC9706, MCF-7, HeLa). Put plainly: Baco-1 virus yield in resistant tumor cells with or without rapamycin (FIG. 2B, 2C). Type of assay: cell-based. The procedure:
FIG. 2. […] Virus yield, as determined by plaque assay. Values represent the mean±SD of triplicate experiments.
as §1

For assay [3], the system named is EC9706 cells. The experiment in a line: Yield of other HSVs (17+, FusOn-H2, ApE-Mir-3) in EC9706 cells with or without rapamycin (FIG. 4). Format: cell-based, human. To be noted: EC9706, 0.1 pfu/cell, rapamycin 100 nM. The text has this: In another preferred embodiment of the present invention the potentiating effect of rapamycin on virus replication in highly resistant tumor cells is applied to other oncolytic HSVs, including strain 17 (17^+), a wild-type HSV-1, FusOn-H2, which is constructed from an HSV-2 by mutating the N-terminal region of the ICP 10 gene (Fu, et al., A Mutant Type 2 Herpes Simplex Virus Deleted for the Protein Kinase Domain of the ICP10 Gene Is a Potent Oncolytic Virus, Mol. Ther. 2006; 13:882-90), and ApE-Mir-3, an HSV-1-based oncolytic virus in which the glycoprotein H (gH) gene is controlled by tissue-specific microRNAs (miRNAs), including let-7 and mir-122. To that end, EC9706 cells are infected with these viruses at 0.1 pfu/cell for 1 h and then cultured the cells in media with or without rapamycin at a concentration of 100 nM. […] Replication of the HSV-2-based oncolytic virus, FusOn-H2, is increased by approximately 5-fold, similar to those seen with Baco-1.
EC9706 cells were infected with three other types of oncolytic HSVs, including FusOn-H2 (an oncolytic HSV derived from HSV-2, while Baco-1 was derived from HSV-1) and Ape-Mir3 (an oncolytic HSV specifically targets to hepatocellular carcinoma), at 0.1 pfu/cell and then incubated with medium without or with rapamycin (100 nM) for 72 h before harvesting for virus titration.

Assay [4] has as its system highly resistant tumor cells (EC9706, MCF-7 and Hela cells). The experiment in a line: Spread and replication of Baco-1 (GFP) in highly resistant tumor cell monolayers (FIG. 3B, 3C). Type of assay: cell-based. To be noted: infected cells incubated with inhibitor.
Excerpt: Because Baco-1 contains the Green Fluorescent Protein (GFP) gene, it is possible to visualize GFP expression during virus infection and thus monitor the spread of virus among tumor cells.
The effect of PI3K inhibitor, LY294002, on the replication of Baco-1 is examined in these cells. The three highly resistant tumor cell lines are infected with Baco-1, with or without the presence of LY294002 in the medium.
In the same experiment, three highly resistant tumor cells (EC9706, MCF-7 and Hela cells) are infected with Baco-1 at 0.01 pfu/cell and incubated without or with rapamycin at a concentration of 100 nM, or LY294002 at 50 μM concentration.

As for `CO[C@H]1C[C@@H]2CC[C@@H](C)[C@@](O)(O2)C(=O)C(=O)N2CCCC[C@H]2C(=O)O[C@H]([C@H](C)C[C@@H]2CC[C@@H](O)[C@H](OC)C2)CC(=O)[C@H](C)/C=C(\C)[C@@H](O)[C@@H](OC)C(=O)[C@H](C)C[C@H](C)/C=C/C=C/C=C/1C` [rapamycin], the “Fold of change in virus yield” value with EC9706 cells [1] (EC9706 (esophagus), Baco-1 yield, well with rapamycin / well without) is on record as 5.98; in the assay on MCF-7, 4.86; in the assay on HeLa it was 3.0; with 293T, 8.01; with SW480, 5.31; with HepG2, 1.04. Moreover, the “Fold of change in virus yield” value in the assay with HuH-7 is recorded as 0.8; in the assay on Hep3B, 1.10; in the assay on MDA-MB-231, 0.87; in the assay on MDA-MB-435 it was 0.6; in the assay with A549, 0.42; in the assay on DLD-1, 1.02. For the same molecule, the results for the “Fold of change in virus yield” value with HCT116, in the assay with PANC-1 and with MPanc-96 were 0.5, 0.99 and 0.55, respectively. Further, the “Fold increase in virus yield” value is about 6 fold in the assay with EC9706 cells [1] (EC9706 cells, Baco-1 0.1 pfu/cell, 72 h, drug in the medium, FIG. 2A); 3-5 fold in assay [2] (MCF-7 and HeLa cells, Baco-1 0.01 pfu/cell, rapamycin 100 nM, 72 h, FIG. 2B). Moreover, the “Virus yield in the presence of rapamycin” value in assay [2] (resistant tumor cells, Baco-1, FIG. 2C) is reported as ~5×10^6 pfu. The “Increase in replication of ApE-Mir-3” value with EC9706 cells [3] stood at 2.5 fold. Also, the “Increase in replication of FusOn-H2” value with EC9706 cells [3] was “approximately 5 fold”. Also, in the assay with EC9706 cells [3], the “Increase in virus yield of strain 17+ (wild-type HSV-1)” value is on record as “more than 10 fold”. In the assay with EC9706 cells [3] (72 h), the “Increase in yield of other oncolytic HSVs (pooled statement)” value is given as 3-10 folds.
Turning to `CC[n+]1c(/C=C/N(C)c2ccccc2)n(-c2ccccc2)c2ccc(-c3nc4ccccc4s3)cc21.[I-]` [Akt Inhibitor IV], in [4], the “Effect on Baco-1 replication” value is listed as “does not result in any significant increase in Baco-1 replication”.

Source of the values: patent US20120100109A1, “Method for increasing the replication of oncolytic HSVs in highly resistant tumor cells using mTOR pathway and PI3K inhibitors” (priority 2010, published 2012).
